Legend:
[1] = test system: intracellular reactive oxygen species; assay: Intracellular reactive oxygen species in VSMC (DCF fluorescence); format: cell-based, Sprague-Dawley rats; details: LAB pretreatment 1 hr
Method: The amount of reactive oxygen species in cells was measured as described in the previous report [Hamaguchi A, Kim S, Izumi Y, et al. Contribution of extracellular signal-regulated kinase to angiotensin II-induced transforming growth factor-beta1 expression in vascular smooth muscle cells. Hypertension. July 1999; 34(1):126-131]. VSMC was cultured in a culture medium without serum for 24 hrs to stop cell proliferation and then pretreated with LAB with various concentrations of 1, 5, 10, 20, 30 μM for 1 hr. The cells were treated with either 10 ng/mL of PDGF-BB for 10 min or with 100 μM H2O2 for 1 min and then cultured in the presence of 5-(and-6)-chloromethyl-2′,7′-dichlorohydrofluorescein diacetate(CM-H2DCF-DA: Molecular Probes Inc., Eurogene, Oreg., USA) in the dark room for 10 min and cultured cells and generation of reactive oxygen species were observed by using fluorescent microscope.
First, the amount of intracellular reactive oxygen species generated by PDGF-BB was measured by using peroxide-sensitive fluorophore DCF. As shown in FIG. 3A (B-1), the amount of intracellular reactive oxygen species generated by PDGF-BB evaluated with DCF fluorescence was 2.7 times greater. […] In this experiment, LAB was treated with PDGF-BB for 10 min. When LAB was pretreated, the amount of DCF fluorescence was decreased as compared to when it was treated only with PDGF-BB [FIG. 3A(A)]. […] Further, LAB decreased the activity of hydrogen peroxide, which increases the generation of intracellular reactive oxygen species, in proportion to its concentration (FIG. 3A(C)).

[2] = test system: common carotid arteries after balloon injury; assay: Neointimal hyperplasia in balloon-injured carotid artery animal model; format: in vivo, Sprague-Dawley rats; details: LAB 10 mg/kg/day from 2 days prior to PTA, compared with placebo
From the text: Two French Forgarty embolectomy catheters were inserted into white male Sprague-Dawley (300 g) through external carotid arteries, and blood vessels were intentionally damaged by moving catheters, which were swollen by adding a physiological saline solution, 3 times vertically within the common carotid thereby expanding blood vessels while shedding off the endothelial cells. A total of 30 rats were divided into 3 groups (10 rats/group) and used in this experiment: group 1 was not treated; group 2 was damaged with their blood vessels; and group 3 was treated with LAB and then damaged with their blood vessels. LAB (10 mg/kg/day) was injected intravenously for a period of 30 days (i.e., from 2 days prior to the blood vessel damage to 28 days after the blood vessel damage). The rats were sacrificed on the 28th day after the blood vessel damage by ablating carotid artery and it was fixed with 4% formaldehyde and then dyed with hematoxylineosin. The mid parts of the damaged blood vessel were cut into 2-4 parts and analyzed via computerized morphometry (SCN Image). […]
White Sprague-Dawley rats were damaged by using percutaneous transluminal angioplastyas (‘PTA’) as stated above. […] On the 2oth day after the surgery the rats were sacrificed and the Intima-Media Thickness (‘IMT’) was measured.

[3] = test system: ERK1/2; assay: Western blot of ERK1/2 phosphorylation in VSMC induced by PDGF-BB; format: cell-based, Sprague-Dawley rats
Method: (§1) VSMC was washed with PBS and then dissolved in lysis buffer (25 mM Tris HCl, pH 7.4, 25 mM NaCl, 25 mM NaF, 25 mM sodium pyrophosphate, 1 mM sodium vanadate, 2.5 mM EDTA, 2.5 mM EGTA, 0.05% (wt/vol) Triton X-100, 0.5% (wt/vol) SDS, 0.5% (wt/vol) deoxycholate, 0.5% (wt/vol) Nonidet P-40, […], and 1 mM PMSF). The cells were collected and centrifuged at 13,000 rpm for 15 min and the protein concentration of the resulting supernatant was measured by Bradford assay. The proteins were denatured and were subjected to SDS-PAGE and then blotted onto nitrocellulose membranes. The membranes were placed in 5% (w/v) non-fat dry milk in TBS with 0.1% Tween20 (TBS-T) and then placed at room temperature for 3 hrs. The blots were placed at 4° C. along with anti-ERK1/2 or anti-Akt antibodies (Cell signaling Technologh, Berely. Mass., USA) for 16 hrs. The membranes were washed 4 times with TBS-T, added with anti-rabbit IgG antibody conjugated with horseradish peroxidase (1:2,000 diluent) and then placed at room temperature for 1 hr. The immunoreactive bands detected by ECL reagents were developed by Hyperfilm-ECL (Amersham Life Science, Little Chalfont, UK). The bands showing positive responses were quantitated by densitometry and then compared with that of control.
(§2) In FIG. 1B, it is shown that both U0126 (20 μM) and LY294002 (40 μM) inhibited activities of LDH and MTT induced by PDGF-BB. As a way to investigate the signal transduction pathway involved in VSMC proliferation induced by PDGF-BB, an experiment was conducted to examine whether PDGF-BB activates a relatively lower signal transduction pathway such as ERK1/2 and Akt.

[4] = test system: Akt; assay: Western blot of Akt phosphorylation in VSMC induced by PDGF-BB; format: cell-based, Sprague-Dawley rats
Method: as §1, §2

[5] = test system: vascular smooth muscle cells; assay: Cytotoxicity of LAB in VSMC; format: cell-based, Sprague-Dawley rats; details: LAB up to 30 μM
Method: The VSMC was treated in a culture medium not containing serum for 24 hrs prior to treatment with PDGF-BB, and the reaction according to the presence or absence of PDGF-BB was analyzed after pretreating with LAB or other reagents.
To investigate whether LAB decreases the proliferation of VSMC induced by PDGF-BB an experiment was performed as follows. The VSMC was placed in a culture medium not containing serum for 24 hrs to inhibit cell proliferation, and then pretreated with LAB with various concentrations of 1, 5, 10, 20, 30 μM and treated with PDGF-BB for 24 hrs. The extent of VSMC proliferation was compared with that of control as stated above via LDH and MTT assays (FIG. 1).

O=C(/C=C/c1ccc(O)c2c1[C@H](C(=O)O[C@H](Cc1ccc(O)c(O)c1)C(=O)[O-])[C@@H](c1ccc(O)c(O)c1)O2)O[C@H](Cc1ccc(O)c(O)c1)C(=O)[O-].[Mg+2] [LAB, lithospermate B]
amount of intracellular reactive oxygen species generated by PDGF-BB ([1]; 10 ng/mL PDGF-BB 10 min): decreased in proportion to the concentration
intracellular reactive oxygen species induced by hydrogen peroxide ([1]; 100 μM H2O2 1 min): decreased
increase in Intima-Media Thickness (IMT) [2]: much low
decrease of ERK1/2 phosphorylation ([3]; 30 μM LAB, 20 mM NAC, 1 h, then PDGF-BB 10 min, FIG. 5C): 0.8 fold
phosphorylation of ERK1/2 due to PDGF-BB ([3]; LAB 1, 5, 10, 20, 30 μM for 1 h, PDGF-BB 10 min, FIG. 5B): inhibits
most effective concentration, inhibition of ERK1/2 phosphorylation ([3]; PDGF-BB 10 ng/mL): 30 µM
decrease of Akt phosphorylation ([4]; 30 μM LAB, 20 mM NAC, 40 μM LY294002, 1 h, then PDGF-BB 10 min, FIG. 4C): 8 folds
phosphorylation of Akt due to PDGF-BB ([4]; LAB 1, 5, 10, 20, 30 μM for 1 h, PDGF-BB 10 min, FIG. 4B): inhibits
most effective concentration, inhibition of Akt phosphorylation ([4]; PDGF-BB 10 ng/mL): 30 µM
adverse reaction in VSMC ([5]; highest concentration): no adverse reaction observed
cytotoxic activities ([5]; data not shown): no cytotoxic activities observed
